Non-standard residues stand in square brackets, D forms with d. Residues, ends and D or L forms follow the SMILES beside them.
Columns and labels:
HDL in human plasma = experiment: pre-beta HDL ELISA assay: remodeling HDL in human plasma in vitro; assay type: biochemical; conditions: pre-beta HDL ELISA
Description: First, various cyclic peptides, including the majority of compounds shown in FIG. 2, were assessed for activities for remodeling HDL in human plasma in vitro. Unlike western blot which was used to generate data shown in FIG. 2, here a pre-beta HDL ELISA assay was used to measure pre-beta HDL levels. Results from the assay are shown in Table 1, which lists the peptides in the order of their activities in remodeling HDL.

[1] = plasma concentration during oral administration in drinking water; assay type: in vivo; conditions: LDLr-null (LDLr−/−), mouse, orally in the drinking water at 25 mg/kg/day, limit of detection 1 μM
Excerpt: We continued oral administration of the peptide to the animals for an additional eight weeks (ten weeks total for the study) to determine how the peptide would impact the development of atherosclerotic lesions (see FIG. 6 for treatment schedule). At the completion of the 10-week study, the total plasma cholesterol level in the peptide-treated animals was 30% lower than in control animals (FIG. 2c). Moreover, an analysis of the whole aorta lesion area and the aortic sinus lesion volume indicated reductions in atherosclerotic lesions of 26% and 50%, respectively (FIGS. 2c, d). […] When administered orally in the drinking water at 25 mg/kg/day, the plasma concentration of compound 1 was below the 1 μM limit of detection (data not shown).
LC-MS SIM quantitation of peptide concentration: Cyclic peptide concentrations were quantified by using reverse-phase HPLC coupled with mass spectrometry. The electrospray ionization mass spectrometry measurements were carried out in the positive ionization mode using a single quadrupole mass spectrometer (Hewlett Packard HP 1100 MSD series). […] For quantitative calibration, standard curves were established using mouse EDTA-anticoagulated plasma spiked with various concentrations of the peptide. […]

LDLr-null mice = experiment: evaluation of atherosclerosis: whole aorta lesion area and aortic sinus lesion volume; assay type: in vivo, mouse; conditions: 10 weeks
Excerpt: In vivo efficacy study: LDL receptor-null (LDLr^−/−) mice on a C57BL/6J background were initially purchased from Jackson Laboratories (Bar Harbor, Me.) and were bred in house. The mice were weaned at 4 weeks of age and were fed ad libitum a standard chow diet (Harlan Teklad 7019) until they were 10-weeks old, when they were switched to a high-fat Western diet (WD) containing 15.8% (wt/wt) fat, 1.25% (wt/wt) cholesterol, and no cholate (Harlan Teklad 94059). At the time that the WD was started, the test cyclic peptide was added to the drinking water at a high dose of 180 μM (200 μg/mL) or a low dose of 18 μM (20 μg/mL) and the mice (female, n=8 per dosing group) were continued on WD for 10 weeks. The lyophilized peptide was easily dissolved in PBS (pH 7.4) containing 1% sucrose, resulting in a clear solution. The drinking water solution was replaced with fresh solution every day. A control group of eight mice (female, n=8) were fed WD with vehicle (PBS with 1% sucrose) drinking water. The mice consumed approximately 2.5 mL of water per day per mouse, and there was no significant difference in water or food consumption between groups.
Evaluation of atherosclerosis: Atherosclerotic lesion severity was assessed in the aortae as previously described in Mullick et al., J. Clin. Invest. 115, 3149-3156, 2005. Briefly, at euthanasia, animals were perfused with PBS, followed by 4% formaldehyde (10% UltraPure EM Grade from Polysciences diluted in PBS, pH 7.2). For en face analysis, the entire mouse aorta was dissected from the proximal ascending aorta to the bifurcation of the iliac artery by using a dissecting microscope. Adventitial fat was removed, and the aorta was opened longitudinally, pinned flat onto black dissecting wax, stained with Sudan IV, and photographed at a fixed magnification. The photographs were digitized, and total aortic areas and lesion areas were calculated by using Adobe Photoshop version CS4, Chromatica V, and NIH Scion Image software (http://rsb.info.nih.gov/nih-image/Default.html). The results were reported as a percentage of the total aortic area that contained lesions.
As a second assessment of atherosclerosis, lesions of the aortic root (heart sinus) were analyzed. Utilizing stereological principles, lesion volume was estimated across a fixed distance of the aortic sinus. […] Lesion areas found only within the valve cusp were measured. […] Lesion volume was calculated from an integration of the measured cross-sectional areas. […]
Other than their in vivo cholesterol reducing activities, several peptides were also examined for ability to inhibit development of atherosclerotic legions in vivo. […] All charts in the figure are shown as a scatter plot along with mean±SD. p values were determined by the one-way ANOVA test with a post hoc Tukey-Kramer test.

[2] = oral ~25 mg/kg/day, LDLr-null mice, high-fat diet, vs control

## CC(C)C[C@@H]1NC(=O)[C@@H](Cc2c[nH]c3ccccc23)NC(=O)[C@H](CCCNC(=N)N)NC(=O)[C@@H](CCC(=O)O)NC(=O)[C@H](CCC(N)=O)NC(=O)[C@@H](CCC(=O)O)NC(=O)[C@H](CCCNC(=N)N)NC(=O)[C@@H](Cc2c[nH]c3ccccc23)NC1=O [SEQ ID NO:1, c[wLwReQeR]] (cyclo([dW]L[dW]R[dE]Q[dE]R))
HDL in human plasma
  Pre-beta HDL generated (normalized level): 0.88
[1]
  level at time molar: < 1000 nM
LDLr-null mice; 10-fold lower dose in drinking water
  atherosclerotic lesions vs control (in words): no significant differences
LDLr-null mice; [2]
  reduction in aortic sinus lesion volume: 50%
  reduction in whole aorta lesion area: 26%

Reference: patent publication US10092620B2, “Uses of cyclic peptides for treating and preventing atherosclerosis” (THE SCRIPPS RESEARCH INSTITUTE, priority 2013, dated 2018)
